From PubChem BioAssay (NCI)
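These data come from cells grown in 96-well plates and exposed to compound for 48 hours at five concentrations. TGI: concentration producing complete growth inhibition.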

Assays:
Assay in all cases: DTP human tumour cell line panel, 48 h
[1] = test system: IGROV1 ovarian
[2] = test system: MDA-MB-231 breast
[3] = test system: U251 CNS
[4] = test system: SN12C renal
[5] = test system: OVCAR-4 ovarian
[6] = test system: NCI/ADR-RES ovarian
[7] = test system: ACHN renal
[8] = test system: SF-268 CNS
[9] = test system: KM12 colon
[10] = test system: M14 melanoma
[11] = test system: NCI-H23 lung
[12] = test system: SK-MEL-5 melanoma
[13] = test system: A549 NSCLC
[14] = test system: HL-60(TB) leukemia
[15] = test system: OVCAR-3 ovarian
[16] = test system: EKVX NSCLC
[17] = test system: CCRF-CEM leukemia
[18] = test system: BT-549 breast
[19] = test system: UACC-257 melanoma
[20] = test system: HOP-92 NSCLC
[21] = test system: SNB-19 CNS
[22] = test system: SW-620 colon
[23] = test system: TK-10 renal
[24] = test system: HCT-15 colon
[25] = test system: DU-145 prostate
[26] = test system: SNB-75 CNS
[27] = test system: UACC-62 melanoma
[28] = test system: T-47D breast
[29] = test system: OVCAR-8 ovarian
[30] = test system: MOLT-4 leukemia
[31] = test system: NCI-H522 lung
[32] = test system: HCT-116 colon
[33] = test system: HCC-2998 colon
[34] = test system: UO-31 renal
[35] = test system: MDA-N
[36] = test system: SR leukemia
[37] = test system: 786-0 renal
[38] = test system: MDA-MB-435
[39] = test system: LOX IMVI melanoma
[40] = test system: OVCAR-5 ovarian
[41] = test system: NCI-H460 lung
[42] = test system: HS 578T breast
[43] = test system: SK-MEL-2 melanoma
[44] = test system: RPMI-8226 leukemia
[45] = test system: COLO 205 colon
[46] = test system: PC-3 prostate
[47] = test system: SF-539 CNS
[48] = test system: HT29 colon
[49] = test system: MCF7 breast
[50] = test system: HOP-62 NSCLC
[51] = test system: CAKI-1 renal
[52] = test system: SK-MEL-28 melanoma
[53] = test system: SK-OV-3 ovarian
[54] = test system: K-562 leukemia
[55] = test system: A498 renal
[56] = test system: NCI-H226 lung
[57] = test system: MALME-3M melanoma
[58] = test system: SF-295 CNS

Measured: TGI

O=C1/C(=C/c2ccc(OC(=O)c3ccc(Cl)cc3)cc2)CCC/C1=C\c1ccc(OC(=O)c2ccc(Cl)cc2)cc1
60.8 µM: [26]
not listed: [53] | [54] | [55] | [56] | [57] | [58]
> 100 µM: all other assays above

O=C1C(CO)=C[C@@H](O)[C@H]2O[C@@H]12
53.4 µM: [5]
36.3 µM: [4]
78.6 µM: [38]
44.9 µM: [49]
65.4 µM: [39]
not listed: [19] | [21] | [23] | [33] | [46] | [47]
> 100 µM: all other assays above
